Results on 49 compounds are retold here after the Kinase Knowledgebase extract (Sharma et al. 2016).

Bounds are passed on as bounds.

The target of this experiment is MAPK14 (human) (UniProt Q16539). Briefly: Inhibition of MAPK14 Kinase Activity.
MAPK14 (human), sequence (Q16539 whole entry, looked up): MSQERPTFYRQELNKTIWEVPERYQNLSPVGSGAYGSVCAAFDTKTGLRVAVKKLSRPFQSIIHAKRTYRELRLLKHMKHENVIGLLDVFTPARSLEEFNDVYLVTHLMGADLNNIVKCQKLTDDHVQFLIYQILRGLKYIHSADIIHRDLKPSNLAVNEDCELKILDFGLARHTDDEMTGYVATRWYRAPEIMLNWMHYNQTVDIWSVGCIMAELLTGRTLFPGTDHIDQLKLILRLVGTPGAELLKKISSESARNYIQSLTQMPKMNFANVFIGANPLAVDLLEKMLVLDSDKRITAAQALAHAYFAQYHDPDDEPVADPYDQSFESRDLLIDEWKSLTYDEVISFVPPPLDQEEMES
In turn, `O=C1CCC(Cc2ccc(F)cc2F)CN1c1c(Cl)ccc(CO)c1Cl` (centres undefined) had an IC50 of at most 10 µM.

Compound `O=C1CCC(Sc2ccc(F)cc2F)CN1C1C(Cl)CCCC1Cl` (centres undefined) came in with an IC50 of at most 10 µM.

The compound `O=C1CCC(Cc2ccc(F)cc2F)CN1c1c(Cl)cc(COC(c2ccccc2)(c2ccccc2)c2ccccc2)cc1Cl` (centres undefined) registered an IC50 of at most 10 µM.

Take `Cc1cc(C)cc(CC2CN(c3c(Cl)cccc3Cl)C(=O)CO2)c1` (centres undefined): the IC50 is at most 10 µM.

The compound `Nc1ccc(Cl)c(N2CC(Cc3ccc(F)cc3F)CSC2=O)c1Cl` (centres undefined) came in with an IC50 of at most 10 µM.

The compound `O=C1CCC(Sc2ccc(F)cc2)CN1C1C(Cl)CCCC1Cl` (centres undefined) had an IC50 of at most 10 µM.

The compound `O=C1NCC(Cc2ccc(F)cc2F)CN1c1c(Cl)cccc1Cl` (centres undefined) registered an IC50 of at most 10 µM.

The compound `O=C1CCC(Oc2ccc(Cl)cc2)CN1c1c(Cl)cncc1Cl` (centres undefined) yielded an IC50 of at most 10 µM.

On to `O=C(Cc1ccccc1)Nc1cc(Cl)c(N2CC(Oc3ccc(F)cc3F)CCC2=O)c(Cl)n1` (centres undefined), for which the IC50 is at most 10 µM.

As for `O=C1NCC(Cc2ccccc2F)CN1c1c(Cl)cccc1Cl` (centres undefined), the IC50 was at most 10 µM.

For `O=C1CCC(Oc2cc(F)cc(F)c2)CN1C1C(Cl)CCCC1Cl` (centres undefined), the IC50 is at most 10 µM.

Take `O=C1CCC(Oc2ccccc2F)CN1C1C(Cl)CCCC1Cl` (centres undefined): the IC50 was at most 10 µM.

On to `O=C(Cc1ccccc1)Nc1sc(Cl)c(N2CC(Sc3ccc(F)cc3F)CCC2=O)c1Cl` (centres undefined), for which the IC50 was at most 10 µM.

For the compound `O=C1CCC(Sc2cccc3ccccc23)CN1c1c(Cl)csc1Cl` (centres undefined), the IC50 was at most 10 µM.

Turning to `O=C(Cc1ccccc1)NC1CCC(Cl)C(N2CC(Sc3ccc(F)cc3F)CCC2=O)C1Cl` (centres undefined), the IC50 is at most 10 µM.

The compound `O=C1CCC(Oc2ccccc2F)CN1c1c(Cl)cncc1Cl` (centres undefined) displayed an IC50 of at most 20 µM.

As to `CNc1cc(Cl)c(N2CC(Sc3ccc(F)cc3F)CCC2=O)c(Cl)c1` (centres undefined), the IC50 was at most 10 µM.

In the case of `O=C1CCC(Oc2ccccc2Cl)CN1c1c(Cl)cccc1Cl` (centres undefined), the IC50 is at most 10 µM.

`O=C1CCC(Sc2cc(F)cc(F)c2)CN1c1c(Cl)csc1Cl` (centres undefined) registered an IC50 of at most 10 µM.

With `CS(=O)(=O)Nc1cc(Cl)c(N2CC(Cc3ccc(F)cc3F)CCC2=O)c(Cl)c1` (centres undefined), the IC50 was at most 10 µM.

With `O=C1SCC(Cc2ccc(Cl)cc2)CN1c1c(Cl)cccc1Cl` (centres undefined), the IC50 is at most 10 µM.

`O=C1CCC(Cc2ccccc2Cl)CN1c1c(Cl)cncc1Cl` (centres undefined) registered an IC50 of at most 10 µM.

`O=C1CCC(Sc2cc(Cl)cc(Cl)c2)CN1c1c(Cl)csc1Cl` (centres undefined) came in with an IC50 of at most 10 µM.

In the case of `O=C1SCC(Cc2cc(Cl)cc(Cl)c2)CN1c1c(Cl)cccc1Cl` (centres undefined), the IC50 is at most 10 µM.

`CNC(=O)CNc1cc(Cl)c(N2CC(Cc3ccc(F)cc3F)CCC2=O)c(Cl)c1` (centres undefined) had an IC50 of at most 10 µM.

`Cc1cccc(C)c1N1CC(Cc2ccccc2O)CCC1=O` (centres undefined) came in with an IC50 of at most 10 µM.

In turn, `CNC1CCC(Cl)C(N2CC(Cc3ccc(F)cc3F)CCC2=O)C1Cl` (centres undefined) gave an IC50 of at most 10 µM.

Consider `CC(=O)NC1CC(Cl)C(N2CC(Sc3ccc(F)cc3F)CCC2=O)C(Cl)C1` (centres undefined), for which the IC50 is at most 10 µM.

Compound `O=C1CCC(Oc2ccc(F)cc2F)CN1c1c(Cl)sc(CO)c1Cl` (centres undefined) gave an IC50 of at most 10 µM.

`COc1ccccc1CC1CN(c2c(Cl)cccc2Cl)C(=O)CO1` (centres undefined): the IC50 is at most 10 µM.

`CC(=O)Nc1ncc(Cl)c(N2CC(Oc3ccc(F)cc3F)CCC2=O)c1Cl` (centres undefined): the IC50 was at most 10 µM.

In turn, `Cc1cc(/C=C/C(=O)O)cc(C)c1N1CC(Cc2ccc(F)cc2F)CCC1=O` (centres undefined) returned an IC50 of at most 10 µM.

With `CCc1ccc(CC2CCC(=O)N(c3c(Cl)cccc3Cl)C2)cc1` (centres undefined), the IC50 was at most 10 µM.

In turn, `Nc1ccc(Cl)c(N2CC(Oc3ccc(F)cc3F)CCC2=O)c1Cl` (centres undefined) showed an IC50 of at most 10 µM.

`Cc1ccc(SC2CCC(=O)N(C3C(Cl)CCCC3Cl)C2)cc1` (centres undefined) had an IC50 of at most 10 µM.

As for `C[C@@H]1C[C@@H](Cc2ccc(F)cc2F)CN(c2c(Cl)cccc2Cl)C1=O`, the IC50 is at most 10 µM.

`CNc1cc(Cl)c(N2CC(Cc3ccc(F)cc3F)CNC2=O)c(Cl)c1` (centres undefined) showed an IC50 of at most 10 µM.

`O=C1CSC(Cc2ccc(Cl)cc2Cl)CN1c1c(Cl)cccc1Cl` (centres undefined): the half-maximal inhibitory concentration (IC50) was at most 10 µM.

Compound `CC(=O)Nc1ccc(Cl)c(N2CC(Sc3ccc(F)cc3F)CCC2=O)c1Cl` (centres undefined) returned an IC50 of at most 10 µM.

`CN(C(=O)Cc1ccccc1)c1cc(Cl)c(N2CC(Cc3ccc(F)cc3F)CCC2=O)c(Cl)c1` (centres undefined) displayed an IC50 of at most 10 µM.

`Nc1cnc(Cl)c(N2CC(Cc3ccc(F)cc3F)CCC2=O)c1Cl` (centres undefined) gave an IC50 of at most 10 µM.

On to `CC(=O)NC1CCC(Cl)C(N2CC(Oc3ccc(F)cc3F)CCC2=O)C1Cl` (centres undefined), for which the IC50 is at most 10 µM.

On to `O=C1CCC(Sc2cc(Cl)cc(Cl)c2)CN1C1C(Cl)CCCC1Cl` (centres undefined), for which the IC50 was at most 10 µM.

As to `O=C(NCc1ccccc1)NCc1ccccc1CC1CCC(=O)N(c2c(Cl)cccc2Cl)C1` (centres undefined), the IC50 is at most 10 µM.

`O=C1CCC(Cc2ccc(F)cc2F)CN1c1c(Cl)cc(N2CCNCC2)cc1Cl` (centres undefined): the IC50 is at most 10 µM.

Take `Cc1cc(NC(=O)OC(C)(C)C)cc(C)c1N1CC(Cc2ccc(F)cc2F)CNC1=O` (centres undefined): the IC50 was at most 10 µM.

Consider `O=C1CCC(Sc2cccc3ccccc23)CN1C1C(Cl)CCCC1Cl` (centres undefined), for which the IC50 is at most 10 µM.

With `Cc1ccc(OC2CCC(=O)N(C3C(Cl)CCCC3Cl)C2)cc1` (centres undefined), the IC50 is at most 10 µM.

In turn, `Cc1cc(C)cc(CC2COC(=O)N(c3c(Cl)cccc3Cl)C2)c1` (centres undefined) registered a 50% inhibitory concentration (IC50) of at most 10 µM.
